From patent US8691757B2 (Bristol-Myers Squibb Company, priority 2011, dated 2014)

Assays:
[1] = system: HCV genotype 1a (H77 strain) replicon in HUH-7 cells; experiment: HCV replicon luciferase reporter assay, genotype 1a; assay type: cell-based; details: Hepatitis C virus, 72 h, HCV genotype 1a replicon, 3 days incubation, Renilla luciferase
Excerpt: (§1) An HCV replicon whole cell system was established as described by Lohmann V, Korner F, Koch J, Herian U, Theilmann L, Bartenschlager R., Science 285(5424):110-3 (1999) and modified to introduce a luciferase reporter, as first described by Krieger et al (Krieger N, Lohmann V, and Bartenschlager R, J. Virol. 75(10):4614-4624 (2001)). CDNA encoding a humanized form of the Renilla luciferase gene and a linker sequence fused directly to the 3′-end of the luciferase gene were introduced into the replicon construct using an Asc1 restriction site located in core, directly upstream of the neomycin marker gene. The adaptive mutation at position 1179 (serine to isoleucine) was also introduced (Blight K J, Kolykhalov, A A, Rice, C M, Science 290(5498):1972-1974). A stable cell line constitutively expressing this HCV replicon construct was generated by first linearizing plasmid DNAs with ScaI. RNA transcripts were synthesized in vitro using the T7 MegaScript transcription kit (Ambion, Austin, Tex.) according to manufacturer's directions. In vitro transcripts of the cDNA were transfected into the human hepatoma cell line, HUH-7. […] Resulting cell lines were characterized for positive and negative strand RNA production and protein production over time.
A stable HCV replicon luciferase reporter cell line representing the genotype 1a H77 strain (Yanagi M, Purcell R H, Emerson S U, et al. Transcripts from a single full-length cDNA clone of hepatitis C virus are infectious when directly transfected into the liver of a chimpanzee. Proc Natl Acad Sci USA 1997; 94(16):8738-8743) was generated as described previously for the genotype 1b (Con1) replicon luciferase cell line. The replicon construct was modified by introducing mutations were introduced into the genes encoding the NS3 helicase domain (proline replaced by leucine at position 1496) and NS5A (serine to isoleucine at position 2204) to improve replication in cell culture.
(§2) HCV replicon luciferase assays were developed to monitor the inhibitory effects of compounds described in the disclosure on HCV genotypes 1a and 1b viral replication. HUH-7 cells, constitutively expressing the HCV replicon, were grown in Dulbecco's Modified Eagle Media (DMEM) (Gibco-BRL) containing 10% Fetal calf serum (FCS) (Sigma) and 1 mg/mL G418 (Gibco-BRL). Compounds were serially diluted 3 folds in DMSO for a twenty-point titration and subsequently transferred to sterile 384-well tissue-culture treated plates (Corning cat #3571). The plates were then seeded with 50 μL of cells at a density of 3.0×10^3 cells/well in DMEM containing 4% FCS (final DMSO concentration at 0.5%). After 3 days incubation at 37° C., cells were analyzed for Renilla Luciferase activity using the EnduRen as substrate (Promega cat #E6485). The EnduRen substrate was diluted in DMEM and then added to the plates to a final concentration of 7.5 μM. The plates were incubated for 2 hrs at 37° C. and then read immediately for 30 seconds with Viewlux Imager (PerkinElmer) using a luminescence program. To assess cytotoxicity of compounds, CC50 values were generated by multiplexing the EnduRen-containing plates with Cell Titer-Blue (Promega, cat #G8082). Cell-Titer Blue (3 μL) was added to each well and incubated for 8 hrs at 37° C. The fluorescence signal from each well was read, with an excitation wavelength at 525/10 nm and an emission wavelength of 598/10 nm, using the Viewlux Imager.
(§3) The EC50 values for compounds were calculated by using a four-parameter logistic equation: y=A+((B−A)/(1+((C/x)^D))), where A and B denotes minimal and maximal % inhibition, respectively, C is the EC50, D is the hill slope and x represents compound concentration.

[2] = system: HCV genotype 1b (Con1) replicon in HUH-7 cells; experiment: HCV replicon luciferase reporter assay, genotype 1b; assay type: cell-based; details: Hepatitis C virus, 72 h, HCV genotype 1b replicon, 3 days incubation, Renilla luciferase
Excerpt: as §1, with “time. […]” for “time.”
as §2, §3

Compound | EC50 ([1]; numeric values) [nM] | EC50 ([2]; numeric values) [nM] | EC50 ([1]; range classes) [nM] | EC50 ([2]; range classes) [nM]
COc1ccc2c(O[C@@H]3C[C@H]4C(=O)N[C@]5(C(=O)NS(=O)(=O)C6CC6)C[C@H]5/C=C\[C@H](C)CCC[C@@H](C)[C@H](NC(=O)OC(C)(C)C(F)(F)F)C(=O)N4C3)nccc2c1 [Compound 9, 1,1,1-trifluoro-2-methylpropan-2-yl (2R,6S,7R,11R,13aS,14aR,16aS,Z)-14a-(cyclopropylsulfonylcarbamoyl)-2-(6-methoxyisoquinolin-1-yloxy)-7,11-dimethyl-5,16-dioxo-1,2,3,5,6,7,8,9,10,11,13a,14,14a,15,16,16a-hexadecahydrocyclopropa[e]pyrrolo[1,2-a][1,4]diazacyclopentadecin-6-ylcarbamate] | 1 | 0.36 |  | 
COc1ccc2ncc(O[C@@H]3C[C@H]4C(=O)N[C@]5(C(=O)NS(=O)(=O)C6(C)CC6)C[C@H]5/C=C\[C@H](C)CCC[C@@H](C)[C@H](NC(=O)OC(C)(C)C(F)(F)F)C(=O)N4C3)nc2c1 [Compound 17] |  |  | 5.01 to 68 | 5.01 to 68
COc1ccc2ncc(O[C@@H]3C[C@H]4C(=O)N[C@]5(C(=O)NS(=O)(=O)C6CC6)C[C@H]5/C=C\[C@H](C)CCC[C@@H](C)[C@H](NC(=O)OC(C)(C)C(F)(F)F)C(=O)N4C3)nc2c1 [Compound 30, 1,1,1-trifluoro-2-methylpropan-2-yl (2R,6S,7R,11R,13aS,14aR,16aS,Z)-14a-(cyclopropylsulfonylcarbamoyl)-2-(7-methoxyquinoxalin-2-yloxy)-7,11-dimethyl-5,16-dioxo-1,2,3,5,6,7,8,9,10,11,13a,14,14a,15,16,16a-hexadecahydrocyclopropa[e]pyrrolo[1,2-a][1,4]diazacyclopentadecin-6-ylcarbamate] |  |  | 2.01 to 5 | 0.2 to 1
COc1ccc2nc(O[C@@H]3C[C@H]4C(=O)N[C@]5(C(=O)NS(=O)(=O)C6CC6)C[C@H]5/C=C\[C@H](C)CCC[C@@H](C)[C@H](NC(=O)OC(C)(C)C(F)(F)F)C(=O)N4C3)cnc2c1 [Compound 32, 1,1,1-trifluoro-2-methylpropan-2-yl (2R,6S,7R,11R,13aS,14aR,16aS,Z)-14a-(cyclopropylsulfonylcarbamoyl)-2-(6-methoxyquinoxalin-2-yloxy)-7,11-dimethyl-5,16-dioxo-1,2,3,5,6,7,8,9,10,11,13a,14,14a,15,16,16a-hexadecahydrocyclopropa[e]pyrrolo[1,2-a][1,4]diazacyclopentadecin-6-ylcarbamate] |  |  | 5.01 to 68 | 5.01 to 68
COc1ccc2nc(O[C@@H]3C[C@H]4C(=O)N[C@]5(C(=O)NS(=O)(=O)C6CC6)C[C@H]5/C=C\[C@@H](C)CCC[C@@H](C)[C@H](NC(=O)OC(C)(C)C)C(=O)N4C3)cnc2c1 [Compound 27, tert-butyl (2R,6S,7R,11S,13aS,14aR,16aS,Z)-14a-(cyclopropylsulfonylcarbamoyl)-2-(6-methoxyquinoxalin-2-yloxy)-7,11-dimethyl-5,16-dioxo-1,2,3,5,6,7,8,9,10,11,13a,14,14a,15,16,16a-hexadecahydrocyclopropa[e]pyrrolo[1,2-a][1,4]diazacyclopentadecin-6-ylcarbamate] |  |  | 5.01 to 68 | 5.01 to 68
COc1cnc(O[C@@H]2C[C@H]3C(=O)N[C@]4(C(=O)NS(=O)(=O)C5CC5)C[C@H]4/C=C\[C@H](C)CCC[C@@H](C)[C@H](NC(=O)OC(C)(C)C(F)(F)F)C(=O)N3C2)c2cc(F)ccc12 [Compound 24, 1,1,1-trifluoro-2-methylpropan-2-yl (2R,6S,7R,11R,13aS,14aR,16aS,Z)-14a-(cyclopropylsulfonylcarbamoyl)-2-(7-fluoro-4-methoxyisoquinolin-1-yloxy)-7,11-dimethyl-5,16-dioxo-1,2,3,5,6,7,8,9,10,11,13a,14,14a,15,16,16a-hexadecahydrocyclopropa[e]pyrrolo[1,2-a][1,4]diazacyclopentadecin-6-ylcarbamate] |  |  | 5.01 to 68 | 5.01 to 68
